ChEMBL document CHEMBL3991601, “The target landscape of clinical kinase drugs” (Science, 2017)
Calls of active or inactive are those of the source. Rule as the data show it, for most assays here: actives have a measured Kd and inactives only a lower limit.

Tests used:
[1] = biological target: Calcium/calmodulin-dependent protein kinase kinase 2 (Homo sapiens, UniProt Q96RR4)
[2] = biological target: T1, DNA replication licensing factor MCM4 (Homo sapiens, UniProt P33991)
T1 sequence (P33991 whole entry): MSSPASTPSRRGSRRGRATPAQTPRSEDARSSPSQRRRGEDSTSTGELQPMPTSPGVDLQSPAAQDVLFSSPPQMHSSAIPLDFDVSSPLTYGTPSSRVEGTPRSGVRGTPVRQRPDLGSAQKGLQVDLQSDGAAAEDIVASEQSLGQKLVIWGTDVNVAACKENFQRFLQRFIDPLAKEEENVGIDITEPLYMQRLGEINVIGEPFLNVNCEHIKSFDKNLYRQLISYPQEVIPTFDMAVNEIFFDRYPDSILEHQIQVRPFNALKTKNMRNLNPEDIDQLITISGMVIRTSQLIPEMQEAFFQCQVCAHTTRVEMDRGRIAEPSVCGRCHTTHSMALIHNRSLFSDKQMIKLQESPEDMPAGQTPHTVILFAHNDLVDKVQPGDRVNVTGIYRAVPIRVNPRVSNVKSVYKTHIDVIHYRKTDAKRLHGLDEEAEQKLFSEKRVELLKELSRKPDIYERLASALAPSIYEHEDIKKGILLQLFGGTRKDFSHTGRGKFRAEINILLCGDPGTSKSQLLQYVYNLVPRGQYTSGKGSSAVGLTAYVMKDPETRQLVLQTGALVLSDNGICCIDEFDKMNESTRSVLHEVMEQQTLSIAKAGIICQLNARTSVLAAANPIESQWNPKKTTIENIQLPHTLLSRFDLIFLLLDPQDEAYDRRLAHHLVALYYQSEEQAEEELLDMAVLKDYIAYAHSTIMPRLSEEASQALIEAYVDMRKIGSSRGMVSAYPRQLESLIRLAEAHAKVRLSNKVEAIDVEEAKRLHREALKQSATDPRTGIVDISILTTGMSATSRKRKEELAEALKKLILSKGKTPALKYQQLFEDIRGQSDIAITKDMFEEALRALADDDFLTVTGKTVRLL

[3] = biological target: Tyrosine-protein kinase JAK1 (Homo sapiens, UniProt P23458)
[4] = biological target: T2, Non-receptor tyrosine-protein kinase TNK1 (Homo sapiens, UniProt Q13470)
T2 sequence (Q13470 whole entry): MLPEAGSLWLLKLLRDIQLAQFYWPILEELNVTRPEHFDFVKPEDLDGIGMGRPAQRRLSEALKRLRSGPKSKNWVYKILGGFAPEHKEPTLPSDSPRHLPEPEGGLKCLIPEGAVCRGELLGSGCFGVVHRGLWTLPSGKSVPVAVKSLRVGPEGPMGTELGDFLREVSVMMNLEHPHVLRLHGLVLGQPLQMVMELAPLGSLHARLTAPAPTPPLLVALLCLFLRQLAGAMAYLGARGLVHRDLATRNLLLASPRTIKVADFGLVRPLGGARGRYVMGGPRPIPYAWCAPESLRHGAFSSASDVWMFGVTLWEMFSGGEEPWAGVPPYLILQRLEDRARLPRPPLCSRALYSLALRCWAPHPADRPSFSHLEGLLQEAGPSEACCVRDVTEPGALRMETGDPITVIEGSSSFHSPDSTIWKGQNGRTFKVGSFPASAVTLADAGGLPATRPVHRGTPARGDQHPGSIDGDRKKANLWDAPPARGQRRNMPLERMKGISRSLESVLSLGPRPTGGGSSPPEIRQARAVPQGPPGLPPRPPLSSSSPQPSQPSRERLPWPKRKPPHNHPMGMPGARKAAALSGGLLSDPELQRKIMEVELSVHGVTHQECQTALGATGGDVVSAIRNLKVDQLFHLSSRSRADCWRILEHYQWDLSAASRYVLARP

[5] = biological target: T3, Glycogen phosphorylase, liver form (Homo sapiens, UniProt P06737); assay type: subcellular, K-562, COLO 205, SK-N-BE(2) and MV-4-11, Cell lysate; conditions: read-out: Kd apparent
T3 sequence (P06737 whole entry): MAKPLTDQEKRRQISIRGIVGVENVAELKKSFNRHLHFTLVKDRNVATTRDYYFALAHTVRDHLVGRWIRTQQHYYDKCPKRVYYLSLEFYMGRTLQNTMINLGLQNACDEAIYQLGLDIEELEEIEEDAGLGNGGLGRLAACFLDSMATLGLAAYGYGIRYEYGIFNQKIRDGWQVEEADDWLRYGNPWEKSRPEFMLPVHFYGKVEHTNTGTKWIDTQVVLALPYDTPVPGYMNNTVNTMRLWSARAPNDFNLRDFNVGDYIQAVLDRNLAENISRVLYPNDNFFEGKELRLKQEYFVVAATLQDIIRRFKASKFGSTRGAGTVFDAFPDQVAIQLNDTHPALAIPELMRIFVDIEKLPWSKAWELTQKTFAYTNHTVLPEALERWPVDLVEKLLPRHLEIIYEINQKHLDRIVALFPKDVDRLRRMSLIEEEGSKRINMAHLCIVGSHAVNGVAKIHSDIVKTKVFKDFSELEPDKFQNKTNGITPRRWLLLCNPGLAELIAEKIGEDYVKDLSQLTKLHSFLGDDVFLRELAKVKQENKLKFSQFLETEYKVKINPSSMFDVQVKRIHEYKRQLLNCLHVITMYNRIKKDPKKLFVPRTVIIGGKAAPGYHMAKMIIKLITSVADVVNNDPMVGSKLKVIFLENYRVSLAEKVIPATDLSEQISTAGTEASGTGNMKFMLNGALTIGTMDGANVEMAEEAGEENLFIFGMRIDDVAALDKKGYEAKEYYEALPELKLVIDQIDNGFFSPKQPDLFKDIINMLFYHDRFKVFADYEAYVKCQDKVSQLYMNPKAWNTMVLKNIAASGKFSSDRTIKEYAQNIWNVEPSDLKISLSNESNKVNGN

[6] = biological target: Mitotic checkpoint serine/threonine-protein kinase BUB1 (Homo sapiens, UniProt O43683)
TGF-beta receptor type-2 = TGF-beta receptor type-2 (Homo sapiens, UniProt P37173)
Also: in the data inactive means no Kd found up to 30 µM.

Sequence of Calcium/calmodulin-dependent protein kinase kinase 2 (Q96RR4 whole entry): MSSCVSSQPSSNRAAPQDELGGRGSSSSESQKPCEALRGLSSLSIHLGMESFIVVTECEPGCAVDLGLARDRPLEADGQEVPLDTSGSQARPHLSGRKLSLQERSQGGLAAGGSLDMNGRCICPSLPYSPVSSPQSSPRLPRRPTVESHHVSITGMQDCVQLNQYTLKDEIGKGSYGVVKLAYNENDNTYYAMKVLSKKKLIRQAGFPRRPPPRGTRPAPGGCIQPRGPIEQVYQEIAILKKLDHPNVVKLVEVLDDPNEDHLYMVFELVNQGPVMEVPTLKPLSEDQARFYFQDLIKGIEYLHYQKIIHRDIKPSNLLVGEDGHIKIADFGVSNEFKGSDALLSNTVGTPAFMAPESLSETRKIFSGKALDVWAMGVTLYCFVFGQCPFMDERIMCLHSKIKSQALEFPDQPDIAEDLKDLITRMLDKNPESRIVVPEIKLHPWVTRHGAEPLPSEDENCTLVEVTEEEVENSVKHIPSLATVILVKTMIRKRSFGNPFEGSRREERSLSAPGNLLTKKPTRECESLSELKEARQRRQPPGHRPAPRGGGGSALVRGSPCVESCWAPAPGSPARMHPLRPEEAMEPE
Sequence of Mitotic checkpoint serine/threonine-protein kinase BUB1 (O43683 whole entry): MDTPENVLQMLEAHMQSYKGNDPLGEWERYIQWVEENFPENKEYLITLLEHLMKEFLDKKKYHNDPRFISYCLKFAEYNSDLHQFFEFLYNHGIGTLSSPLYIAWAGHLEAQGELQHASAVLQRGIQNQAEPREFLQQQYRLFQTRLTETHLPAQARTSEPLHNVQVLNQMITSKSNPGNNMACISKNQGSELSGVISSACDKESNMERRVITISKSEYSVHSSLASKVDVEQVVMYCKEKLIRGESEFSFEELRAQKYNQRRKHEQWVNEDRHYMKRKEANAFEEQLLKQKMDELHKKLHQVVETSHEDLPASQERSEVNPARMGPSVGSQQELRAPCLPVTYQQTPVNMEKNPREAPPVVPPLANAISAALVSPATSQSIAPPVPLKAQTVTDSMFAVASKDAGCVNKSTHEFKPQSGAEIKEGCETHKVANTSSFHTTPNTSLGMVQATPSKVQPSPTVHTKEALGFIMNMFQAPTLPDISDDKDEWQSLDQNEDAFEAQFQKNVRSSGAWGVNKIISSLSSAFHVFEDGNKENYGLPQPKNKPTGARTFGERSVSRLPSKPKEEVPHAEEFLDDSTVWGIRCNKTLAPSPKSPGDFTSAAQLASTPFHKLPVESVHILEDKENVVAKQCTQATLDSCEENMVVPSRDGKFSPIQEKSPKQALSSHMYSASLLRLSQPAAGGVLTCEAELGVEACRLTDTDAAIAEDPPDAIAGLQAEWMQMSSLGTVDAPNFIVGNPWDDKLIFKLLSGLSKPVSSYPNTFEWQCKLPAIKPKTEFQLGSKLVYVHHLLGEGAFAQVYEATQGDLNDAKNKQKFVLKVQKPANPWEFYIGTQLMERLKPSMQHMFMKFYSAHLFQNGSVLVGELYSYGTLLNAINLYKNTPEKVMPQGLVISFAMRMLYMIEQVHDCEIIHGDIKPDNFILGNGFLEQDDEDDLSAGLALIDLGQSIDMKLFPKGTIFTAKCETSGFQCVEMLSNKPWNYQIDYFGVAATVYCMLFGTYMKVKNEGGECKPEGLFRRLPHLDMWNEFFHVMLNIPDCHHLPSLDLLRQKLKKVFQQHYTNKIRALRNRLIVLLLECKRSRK
Sequence of TGF-beta receptor type-2 (P37173 whole entry): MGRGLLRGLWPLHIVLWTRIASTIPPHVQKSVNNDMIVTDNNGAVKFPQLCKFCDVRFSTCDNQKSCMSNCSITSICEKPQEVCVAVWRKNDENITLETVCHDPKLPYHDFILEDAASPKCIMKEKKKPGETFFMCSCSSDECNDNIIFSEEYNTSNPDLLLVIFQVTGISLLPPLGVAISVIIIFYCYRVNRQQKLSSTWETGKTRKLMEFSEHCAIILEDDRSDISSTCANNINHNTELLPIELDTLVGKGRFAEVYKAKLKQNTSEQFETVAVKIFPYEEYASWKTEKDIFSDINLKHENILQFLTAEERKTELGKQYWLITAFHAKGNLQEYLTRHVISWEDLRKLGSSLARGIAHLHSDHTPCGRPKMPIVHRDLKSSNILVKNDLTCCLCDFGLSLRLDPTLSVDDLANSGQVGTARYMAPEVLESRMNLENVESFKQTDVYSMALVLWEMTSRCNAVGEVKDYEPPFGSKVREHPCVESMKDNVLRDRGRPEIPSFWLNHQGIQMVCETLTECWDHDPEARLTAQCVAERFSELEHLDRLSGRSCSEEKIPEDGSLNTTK
Sequence of Tyrosine-protein kinase JAK1 (P23458 whole entry): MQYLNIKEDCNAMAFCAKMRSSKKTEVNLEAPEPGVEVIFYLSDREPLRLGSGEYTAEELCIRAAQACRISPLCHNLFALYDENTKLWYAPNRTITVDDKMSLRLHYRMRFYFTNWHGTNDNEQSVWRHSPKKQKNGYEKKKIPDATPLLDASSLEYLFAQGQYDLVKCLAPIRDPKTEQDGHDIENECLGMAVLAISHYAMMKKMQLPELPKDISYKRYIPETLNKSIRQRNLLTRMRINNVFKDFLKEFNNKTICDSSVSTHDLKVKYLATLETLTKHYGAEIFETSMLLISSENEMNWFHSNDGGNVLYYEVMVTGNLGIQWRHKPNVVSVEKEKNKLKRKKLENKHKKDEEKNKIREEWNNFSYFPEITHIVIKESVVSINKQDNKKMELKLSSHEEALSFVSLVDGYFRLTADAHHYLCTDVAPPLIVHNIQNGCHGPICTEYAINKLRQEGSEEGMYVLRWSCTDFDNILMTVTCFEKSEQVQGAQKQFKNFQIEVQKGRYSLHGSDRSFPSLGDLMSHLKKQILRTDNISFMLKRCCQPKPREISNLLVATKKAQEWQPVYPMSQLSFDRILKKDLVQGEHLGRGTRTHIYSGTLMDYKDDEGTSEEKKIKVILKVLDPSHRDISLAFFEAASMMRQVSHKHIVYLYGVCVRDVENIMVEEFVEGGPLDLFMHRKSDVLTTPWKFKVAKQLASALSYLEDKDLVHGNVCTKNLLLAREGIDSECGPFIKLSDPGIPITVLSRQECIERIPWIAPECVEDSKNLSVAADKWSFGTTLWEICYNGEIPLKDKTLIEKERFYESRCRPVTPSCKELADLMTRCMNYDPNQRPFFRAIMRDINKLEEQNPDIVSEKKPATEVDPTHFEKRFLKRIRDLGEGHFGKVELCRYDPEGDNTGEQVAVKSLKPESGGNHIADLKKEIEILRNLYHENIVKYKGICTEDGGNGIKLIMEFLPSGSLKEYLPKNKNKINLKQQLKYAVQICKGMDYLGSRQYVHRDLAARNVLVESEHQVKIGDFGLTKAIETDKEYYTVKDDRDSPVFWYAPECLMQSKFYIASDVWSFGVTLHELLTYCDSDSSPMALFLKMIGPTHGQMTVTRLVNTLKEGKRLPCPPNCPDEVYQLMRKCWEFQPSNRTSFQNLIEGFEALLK

Row | Kd [1] | Kd [2] | Kd [3] | Kd [4] | Kd [5] | Kd [6] | Kd (TGF-beta receptor type-2) | SMILES
1 | > 30 µM (inactive) | > 30 µM (inactive) | > 30 µM (inactive) | > 30 µM (inactive) | > 30 µM (inactive) | > 30 µM (inactive) | > 30 µM (inactive) | FC(F)(F)c1ccc(CNc2ccc(Cc3c[nH]c4ncc(Cl)cc34)cn2)cn1 [PEXIDARTINIB]
2 | > 30 µM (inactive) | > 30 µM (inactive) | > 30 µM (inactive) | 1.26 µM (active) | > 30 µM (inactive) | > 30 µM (inactive) | > 30 µM (inactive) | Cc1cc(Nc2nc(N[C@@H](C)c3ncc(F)cn3)ncc2Cl)n[nH]1 [AZD-1480]
3 | > 30 µM (inactive) | > 30 µM (inactive) | > 30 µM (inactive) | > 30 µM (inactive) | > 30 µM (inactive) | > 30 µM (inactive) | > 30 µM (inactive) | O=S(=O)(c1cccc2c(O)nccc12)N1CCCNCC1 [HYDROXYFASUDIL]
4 | > 30 µM (inactive) | > 30 µM (inactive) | > 30 µM (inactive) | > 30 µM (inactive) | > 30 µM (inactive) | > 30 µM (inactive) | > 30 µM (inactive) | C[C@@H]1COC(Nc2ccc3ncnc(Nc4ccc(OCc5nccs5)c(Cl)c4)c3c2)=N1 [VARLITINIB]
5 | 2.6 µM (active) | > 30 µM (inactive) | > 30 µM (inactive) | > 30 µM (inactive) | > 30 µM (inactive) | > 30 µM (inactive) | > 30 µM (inactive) | CCN1CCN(Cc2ccc(Nc3ncc(F)c(-c4cc(F)c5nc(C)n(C(C)C)c5c4)n3)nc2)CC1 [ABEMACICLIB]
6 | > 30 µM (inactive) | > 30 µM (inactive) | > 30 µM (inactive) | > 30 µM (inactive) | > 30 µM (inactive) | > 30 µM (inactive) | > 30 µM (inactive) | O=c1[nH]c([C@@H]2CCCN2)nc2c1oc1ccc(Cl)cc12
7 | > 30 µM (inactive) | > 30 µM (inactive) | > 30 µM (inactive) | 0.046 µM | > 30 µM (inactive) | > 30 µM (inactive) | > 30 µM (inactive) | CC[C@@](C)(Nc1ccnc(-c2c[nH]c3ncccc23)n1)C(=O)NCC(F)(F)F [DECERNOTINIB]
8 | 35.6 µM (active) | > 30 µM (inactive) | > 30 µM (inactive) | > 30 µM (inactive) | > 30 µM (inactive) | > 30 µM (inactive) | > 30 µM (inactive) | CCc1cc2c(cc1N1CCC(N3CCOCC3)CC1)C(C)(C)c1[nH]c3cc(C#N)ccc3c1C2=O [ALECTINIB]
9 | > 30 µM (inactive) | > 30 µM (inactive) | > 30 µM (inactive) | > 30 µM (inactive) | > 30 µM (inactive) | > 30 µM (inactive) | > 30 µM (inactive) | COc1cc2ncnc(Nc3ccc(F)c(Cl)c3)c2cc1NC(=O)/C=C/CN1CCCCC1 [DACOMITINIB ANHYDROUS]
10 | > 30 µM (inactive) | > 30 µM (inactive) | > 30 µM (inactive) | > 30 µM (inactive) | > 30 µM (inactive) | 2.91 µM (active) | > 30 µM (inactive) | C#Cc1cccc(Nc2ncnc3cc4c(cc23)OCCOCCOCCO4)c1 [ICOTINIB]

Row | SMILES | Kd [1] | Kd [2] | Kd [3] | Kd [4] | Kd [5] | Kd [6] | Kd (TGF-beta receptor type-2)
11 | COc1cc(F)c(F)c(Nc2ccc(I)cc2F)c1NS(=O)(=O)C1(C[C@H](O)CO)CC1 [REFAMETINIB] | > 30 µM (inactive) | > 30 µM (inactive) | > 30 µM (inactive) | > 30 µM (inactive) | > 30 µM (inactive) | > 30 µM (inactive) | > 30 µM (inactive)
12 | CC1(COc2ccc3c(c2)ncn3-c2ccc3cccc(N4CCC(N)CC4)c3n2)COC1 [CRENOLANIB] | 0.135 µM (active) | > 30 µM (inactive) | > 30 µM (inactive) | > 30 µM (inactive) | > 30 µM (inactive) | > 30 µM (inactive) | > 30 µM (inactive)
13 | CC(C)CC(=O)Nc1[nH]nc2c1CN(C(=O)C1CCN(C)CC1)C2(C)C [PHA-793887] | > 30 µM (inactive) | > 30 µM (inactive) | > 30 µM (inactive) | > 30 µM (inactive) | > 30 µM (inactive) | > 30 µM (inactive) | > 30 µM (inactive)
14 | Cc1c(NC(=O)OC[C@@H]2COCCN2)cn2ncnc(Nc3ccc4c(cnn4Cc4cccc(F)c4)c3)c12 [AC-480] | > 30 µM (inactive) | > 30 µM (inactive) | > 30 µM (inactive) | > 30 µM (inactive) | > 30 µM (inactive) | > 30 µM (inactive) | > 30 µM (inactive)
15 | C=CCn1c(=O)c2cnc(Nc3ccc(N4CCN(C)CC4)cc3)nc2n1-c1cccc(C(C)(C)O)n1 [ADAVOSERTIB] | > 30 µM (inactive) | > 30 µM (inactive) | > 30 µM (inactive) | > 30 µM (inactive) | > 30 µM (inactive) | > 30 µM (inactive) | > 30 µM (inactive)
16 | COCCN1CCN(Cc2ccc(-c3n[nH]c4c3C(=O)c3c(NC(=O)NN5CCOCC5)cccc3-4)cc2)CC1 [RGB-286638] | > 30 µM (inactive) | > 30 µM (inactive) | 0.139 µM (active) | > 30 µM (inactive) | > 30 µM (inactive) | > 30 µM (inactive) | 0.08 µM (active)
17 | C[C@]1(O)C[C@@H](c2nc(-c3ccc4ccc(-c5ccccc5)nc4c3)c3c(N)nccn32)C1 [LINSITINIB] | > 30 µM (inactive) | > 30 µM (inactive) | > 30 µM (inactive) | > 30 µM (inactive) | > 30 µM (inactive) | > 30 µM (inactive) | > 30 µM (inactive)
18 | O=S(=O)(c1cccc2cnccc12)N1CCCNCC1 [FASUDIL] | > 30 µM (inactive) | > 30 µM (inactive) | > 30 µM (inactive) | > 30 µM (inactive) | > 30 µM (inactive) | > 30 µM (inactive) | > 30 µM (inactive)
19 | Cc1c(Cn2c(C)nc3c(C(=O)O)cc(N4CCOCC4)cc32)cccc1C(F)(F)F [GSK-2636771] | > 30 µM (inactive) | > 30 µM (inactive) | > 30 µM (inactive) | > 30 µM (inactive) | > 30 µM (inactive) | > 30 µM (inactive) | > 30 µM (inactive)
